Data set [1] is described as follows: MTT cytotoxicity assay (24 h), MRC-5. The class given is cell-based. To be noted: human, MRC-5 embryonal lung fibroblast cells, 24 h incubation. The method, then:
(§1) MRC-5 human embryonal lung fibroblast cell lines (ATCC CCL-171) were purchased from LGC Promochem, Teddington, UK. The cell line was cultured in Eagle’s Minimal Essential Medium (EMEM, containing 4.5 g/L glucose) supplemented with a non-essential amino acid mixture, a selection of vitamins and 10% heat-inactivated foetal bovine serum. The cell lines were incubated at 37 °C, in a 5% CO2, 95% air atmosphere.
(§2) MRC-5 non-cancerous human embryonic lung fibroblast and human colonic adenocarcinoma cell lines (doxorubicin-sensitive Colo 205 and multidrug-resistant Colo 320 colonic adenocarcinoma cells) were used to determine the effect of compounds on cell proliferation and growth. The effects of increasing concentrations of compounds on cell proliferation and growth were tested in 96-well flat-bottomed microtitre plates. The compounds were diluted in a volume of 100 μL of medium.
(§3) The adherent human embryonal lung fibroblast cells were seeded overnight and cultured in 96-well flat-bottomed microtitre plates prior to the assay, using EMEM supplemented with 10% heat-inactivated foetal bovine serum. The density of the cells was adjusted to 6 × 10^3 cells (antiproliferative assay) or 1 × 10^4 cells (cytotoxicity assay) in 100 μL per well, the cells were seeded for 24 h at 37 °C, 5% CO2, then the medium was removed from the plates containing the cells, and the dilutions of compounds (200 µL) previously made in a separate plate were added to the cells in.
(§4) The culture plates were incubated at 37 °C for 72 h (antiproliferative test) or 24 h (cytotoxicity test); at the end of the incubation period, 20 μL of MTT (thiazolyl blue tetrazolium bromide, Sigma, St. Louis, MO, USA) solution (from a stock solution of 5 mg/mL) were added to each well. After incubation at 37 °C for 4 h, 100 μL of sodium dodecyl sulphate (SDS) (Sigma) solution (10% in 0.01 M HCI) were added to each well and the plates were further incubated at 37 °C overnight. Cell growth was determined by measuring the optical density (OD) at 540/630 nm with Multiscan EX ELISA reader (Thermo Labsystems, Cheshire, WA, USA). Inhibition of the cell growth was determined according to the formula below: Inhibition %=100−[OD sample−OD medium control/OD cell control−OD medium control]×100
(§5) Results are expressed in terms of IC50, defined as the inhibitory dose that reduces the growth of the cells exposed to the tested compounds by 50%.

In data set [2] the test system is multidrug-resistant Colo 320 colonic adenocarcinoma cells. The experiment in a line: MTT antiproliferative assay (72 h), Colo 320. It counts as cell-based, human. To be noted: for IC50: MTT, 72 h incubation, read-out: Antiproliferative IC50, Colo320. The method, then:
(§6) Human colonic adenocarcinoma cell lines (Colo 205 doxorubicin-sensitive and Colo 320/MDR-LRP multidrug-resistant expressing ABCB1 (MDR1)-LRP), ATCC-CCL-220.1 (Colo 320) and CCL-222 (Colo 205) were purchased from LGC Promochem, Teddington, UK. The cells were cultured in RPMI 1640 medium supplemented with 10% heat-inactivated foetal bovine serum, 2 mM L-glutamine, 1 mM Na-pyruvate and 100 mM Hepes. The cell lines were incubated at 37 °C, in a 5% CO2, 95% air atmosphere. The semi-adherent human colon cancer cells were detached with Trypsin-Versene (EDTA) solution for 5 min at 37 °C.
as §2
(§7) In case of the colonic adenocarcinoma cells, the 2-fold serial dilutions of compounds were prepared in 100 μL of RPMI 1640, horizontally. The semi-adherent colonic adenocarcinoma cells were treated with Trypsin-Versene (EDTA) solution. The density of the cells was adjusted to 6 × 10^3 cells (antiproliferative assay) or 1 × 10^4 cells (cytotoxicity assay) in 100 μL of RPMI 1640 medium, and was added to each well, with the exception of the medium control wells. The final volume of the wells containing compounds and cells was 200 μL.
as §4, §5

Data set [3] has the same test system. The experiment in a line: MTT cytotoxicity assay (24 h), Colo 320. It counts as cell-based. Particulars: Homo sapiens, COLO 320, 24 h, 24 h incubation, read-out: Cytotoxicity IC50, Colo320. The method, then:
as §6, §2, §7, §4, §5

For data set [4], the system named is doxorubicin-sensitive Colo 205 colonic adenocarcinoma cells. The experiment in a line: MTT antiproliferative assay (72 h), Colo 205. Particulars: Homo sapiens, COLO 205, 72 h incubation, read-out: Antiproliferative IC50, Colo205. The class given is cell-based, human. As to the method: as §6, §2, §7, §4, §5
Data set [5] concerns MRC-5 human embryonal lung fibroblast cell line. The data set can be described thus: MTT antiproliferative assay (72 h), MRC-5. The class given is cell-based. To be noted: Homo sapiens, MRC5, 72 h incubation. The method, then:
as §1, §2, §3, §4, §5

Data set [6] concerns multidrug-resistant Colo 320 colonic adenocarcinoma cells expressing the ABCB1 transporter. The experiment in a line: Checkerboard combination assay with doxorubicin. It counts as cell-based, human. As to the method: A checkerboard microplate method was applied to study the effect of drug interactions between the compounds and doxorubicin. The assay was carried out using multidrug-resistant Colo 320 colonic adenocarcinoma cells expressing the ABCB1 transporter. The final concentration of the chemotherapeutic agent doxorubicin used in the combination experiment was chosen in accordance with their antiproliferative activity previously determined. The dilutions of the chemotherapeutic drug were made in a horizontal direction in 100 μL, and the dilutions of the compounds vertically in the microtitre plate in 50 μL volume. The cells were re-suspended in culture medium and distributed into each well in 50 μL containing 6 × 10^3 cells each. The plates were incubated for 72 h at 37 °C in 5% CO2 atmosphere. The cell growth rate was determined after MTT staining. At the end of the incubation period, 20 μL of MTT (thiazolyl blue tetrazolium bromide, Sigma) solution (from a stock solution of 5 mg/mL) was added to each well. After incubation at 37 °C for 4 h, 100 μL of SDS (Sigma-Aldrich, St. Louis, MO, USA) solution (10% in 0.01 M HCl; Merck, Darmstadt, Germany) were added to each well and the plates were further incubated at 37 °C overnight. OD was measured at 540/630 nm with Multiscan EX ELISA reader (Thermo Labsystems, Cheshire, WA). Combination index (CI) values at 50% of the growth inhibition dose (ED50), were determined using CompuSyn software (ComboSyn, Inc., Paramus, NJ) to plot four to five data points to each ratio.

Data set [7] in a line: MTT cytotoxicity assay (24 h), Colo 205. The class given is cell-based, human. Particulars: human colonic adenocarcinoma cell lines versus MRC-5, cytotoxicity; read-out: selectivity index [SI], cytotoxicity. The method, then:
as §6, §2, §7, §4, §5

The test system of data set [8] is doxorubicin-sensitive Colo 205 colonic adenocarcinoma cells. The data set can be described thus: MTT cytotoxicity assay (24 h), Colo 205. The class given is cell-based, human. Particulars: Homo sapiens, COLO 205; MTT, 24 h incubation; read-out: Cytotoxicity IC50, Colo205. As to the method:
as §6, §2, §7, §4, §5

In data set [9] the test system is Staphylococcus aureus ATCC 25923. The experiment in a line: Real-time ethidium bromide accumulation assay, S. aureus ATCC 25923. It counts as cell-based. Particulars: EB accumulation, 60 min, positive control at 25 μM.
Protocol: (§8) The impact of compounds on EB accumulation was determined by the automated EB method using a CLARIOstar Plus plate reader (BMG Labtech, Aylesbury, UK). First, the bacterial strain was incubated until it reached an OD of 0.6 at 600 nm [Escherichia coli AG100 is incubated in Luria–Bertani (LB) broth and Staphylococcus aureus ATCC 25923 is incubated in tryptic soy broth (TSB)]. The culture was washed with PBS (pH 7.4) and centrifuged at 13,000 × g for 3 min, the cell pellet was re-suspended in PBS. The compounds were added at ½ MIC concentration (in case of >100 the concentration is 100 µM) to PBS containing a non-toxic concentration of EB (2 µg/mL). […] Then, the plates were placed into the CLARIOstar plate reader, and the fluorescence was monitored at excitation and emission wavelengths of 525 and 615 nm every minute for 1 h on a real-time basis. From the real-time data, the activity of the compounds, namely the relative fluorescence index (RFI) of the last time point (60 min) of the EB accumulation assay, was calculated according to the following formula: RFI=(RFtreated – RFuntreated)/RFuntreated where RFtreated is the relative fluorescence (RF) at the last time point of EB retention curve in the presence of an inhibitor, and RFuntreated is the RF at the last time point of the EB retention curve of the untreated control having the solvent control (DMSO). […]
The next data set deals with MCF-7 mp53 cells. Details: method as in Sturgeon et al. [2005]. Particulars: ref Sturgeon et al. [2005]; cited from earlier work.
The test system of a further data set is Escherichia coli AG100. Particulars: EB accumulation, 60 min, positive control at 50 μM.
For data set [10], the target named is T1, ABCB1 efflux pump (P-glycoprotein) (Homo sapiens, UniProt P08183).
T1 construct: The colonic adenocarcinoma cells (the doxorubicin-sensitive Colo 205 and the multidrug-resistant Colo 320); CCL-222 (Colo 205); host or cells: Colo 320/MDR-LRP (multidrug-resistant, overexpressing ABCB1) and Colo 205 (sensitive) human colon adenocarcinoma cells
The experiment in a line: Rhodamine 123 retention by flow cytometry (ABCB1 inhibition). It counts as cell-based. To be noted: rhodamine 123, Colo 320 vs Colo 205, at 0.2 µM.
Protocol: This method is a fluorescence-based detection system which uses tariquidar as a reference inhibitor of the ABCB1 efflux pump (EP). The colonic adenocarcinoma cells (the doxorubicin-sensitive Colo 205 and the multidrug-resistant Colo 320) were adjusted to a density of 2 × 10^6/mL, re-suspended in serum-free RPMI 1640 medium and distributed in 0.5 mL aliquots into Eppendorf centrifuge tubes. The compounds were added at different concentrations (2 μM and 20 μM final concentrations, respectively), and the samples were incubated for 10 min at room temperature. […] The fluorescence intensity of the cell population was measured with a Partec CyFlow flow cytometer (Partec, Munster, Germany). […] The mean fluorescence intensity (%) was calculated for the treated MDR Colo 320 and sensitive Colo 205 cell lines as compared to the untreated cells. The fluorescence activity ratio (FAR) was calculated based on the following equation which relates the measured fluorescence values: FAR=Colo 320treated/Colo 320control/Colo 205treated/Colo 205control
The fluorescence dye, rhodamine 123 was used as a marker of the ABCB1 transporter activity to explore the potential inhibitory activity of the isolated compounds. Inside cells without overexpressing the P-glycoprotein, the rhodamine 123 accumulates and resulting in an increase in fluorescence intensity (λex = 490/λem = 525 nm). […]

T1 sequence (P08183 whole entry): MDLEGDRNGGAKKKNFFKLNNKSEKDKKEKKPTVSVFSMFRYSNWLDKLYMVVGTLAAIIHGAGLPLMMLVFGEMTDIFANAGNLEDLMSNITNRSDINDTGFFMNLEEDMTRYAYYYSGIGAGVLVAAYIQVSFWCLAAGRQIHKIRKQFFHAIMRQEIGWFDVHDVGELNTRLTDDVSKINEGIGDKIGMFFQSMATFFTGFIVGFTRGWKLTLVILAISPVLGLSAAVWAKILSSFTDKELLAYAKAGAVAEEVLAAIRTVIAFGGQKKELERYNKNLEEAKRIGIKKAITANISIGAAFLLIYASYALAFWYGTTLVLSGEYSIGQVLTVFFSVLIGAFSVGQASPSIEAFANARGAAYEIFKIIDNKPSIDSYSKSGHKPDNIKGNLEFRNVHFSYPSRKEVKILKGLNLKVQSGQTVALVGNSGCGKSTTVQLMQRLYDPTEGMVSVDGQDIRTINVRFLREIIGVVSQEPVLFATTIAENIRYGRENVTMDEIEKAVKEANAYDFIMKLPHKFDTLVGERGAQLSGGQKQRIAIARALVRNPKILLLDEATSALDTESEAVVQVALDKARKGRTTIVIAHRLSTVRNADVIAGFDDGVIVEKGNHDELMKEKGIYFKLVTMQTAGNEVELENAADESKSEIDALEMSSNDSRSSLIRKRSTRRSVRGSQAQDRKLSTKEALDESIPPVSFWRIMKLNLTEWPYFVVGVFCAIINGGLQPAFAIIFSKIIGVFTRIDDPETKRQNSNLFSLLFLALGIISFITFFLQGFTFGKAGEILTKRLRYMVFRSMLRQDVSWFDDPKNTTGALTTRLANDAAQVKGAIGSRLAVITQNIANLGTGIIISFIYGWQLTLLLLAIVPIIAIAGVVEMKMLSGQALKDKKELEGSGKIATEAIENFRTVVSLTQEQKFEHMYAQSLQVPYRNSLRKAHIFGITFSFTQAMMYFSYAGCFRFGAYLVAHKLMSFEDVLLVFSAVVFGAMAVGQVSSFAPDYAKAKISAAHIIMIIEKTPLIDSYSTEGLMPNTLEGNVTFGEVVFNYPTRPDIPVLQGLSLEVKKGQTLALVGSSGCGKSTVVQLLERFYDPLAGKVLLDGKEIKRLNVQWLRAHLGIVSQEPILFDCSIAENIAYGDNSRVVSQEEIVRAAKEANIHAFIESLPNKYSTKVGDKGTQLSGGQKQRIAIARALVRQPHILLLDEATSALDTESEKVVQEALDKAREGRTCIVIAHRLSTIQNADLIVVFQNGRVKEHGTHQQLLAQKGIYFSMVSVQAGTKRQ
Protocol for Escherichia coli AG100: as §8

In the case of `CC(=O)O[C@@H]1C[C@H]2[C@@H](C)CC[C@@H]3[C@@H](OC(=O)[C@@H]3C)[C@]2(C)C1=O` [Compound 2, acetoxydihydrodamsin], half-maximal inhibition in data set [1] (IC50 at 24 h) was put at 23.8 ± 1.06 µM. For the same compound, the IC50 in data set [2] (Homo sapiens, COLO 320, 72 h) was 3.67 ± 0.35 µM; in data set [3], 10.8 ± 0.22 µM; in data set [4], 5.14 ± 0.55 µM; in data set [5], 11 ± 0.31 µM; in [8], 7.64 ± 0.37 µM. In addition, the Type of interaction entry in [6] (starting concentration 15 µM, ratio 1.74:1) is reported as “Antagonism”; in [6] (starting concentration 15 µM, ratio 3.48:1) it was “Antagonism”; in [6] (starting concentration 15 µM, ratio 6.96:1) it was “Antagonism”; in data set [6] (starting concentration 15 µM, ratio 13.92.1), “Antagonism”; in data set [6] (starting concentration 15 µM, ratio 27.84:1) it was “Moderate antagonism”; in data set [6] (starting concentration 15 µM, ratio 55.68:1) it was “Moderate antagonism”. Further, the selectivity ratio at 24 h in data set [7] is 3.11.

In the case of `COC(=O)[C@H]1[C@H]2C[C@@H]3c4[nH]c5cc(OC)ccc5c4CCN3C[C@H]2C[C@@H](OC(=O)c2cc(OC)c(OC)c(OC)c2)[C@@H]1OC` [reserpine], in data set [9], the “RFI (relative fluorescence index)” value is recorded as 2.77.

With `C=C1C(=O)O[C@@H]2[C@H]1CC[C@H](C)[C@]1(CCC(=O)O1)[C@@]2(C)O` [Compound 4, psilostachyin], the “effect on mitosis of MCF-7 mp53 cells (G2 checkpoint inhibitors)” value in the data set with MCF-7 mp53 cells is given as “blocked MCF-7 mp53 cells in mitosis”. In data set [1], this compound registered an IC50 at 24 h of 41.8 ± 2.43 µM. For the same compound, the “selectivity index (SI), antiproliferative” value in data set [2] (Colo320 versus MRC-5, cell proliferation inhibition) is 3.04. In addition, the IC50 in data set [2] (Homo sapiens, COLO 320, 72 h) is 5.29 µM; in [2] it was 8.78 ± 0.22 µM; in data set [4], 14.4 ± 1 µM; in data set [5], 26.7 ± 0.51 µM; in data set [8], 42.4 ± 2.37 µM. Further, the Type of interaction result is listed as “Additive effect” in [6] (starting concentration 25 µM, ratio 2.9:1); “Moderate antagonism” in data set [6] (starting concentration 25 µM, ratio 5.8:1); “Synergism” in [6] (starting concentration 25 µM, ratio 11.6:1); “Antagonism” in [6] (starting concentration 25 µM, ratio 23.2:1); “Moderate antagonism” in [6] (starting concentration 25 µM, ratio 46.4:1); “Slight antagonism” in [6] (starting concentration 25 µM, ratio 92.2:1).

Consider `C=C1C(=O)O[C@@H]2[C@H]1CC[C@H](C)[C@@H]1CCC(=O)O[C@@]21C` [Compound 1, psilostachyin C], for which the “effect on mitosis of MCF-7 mp53 cells (G2 checkpoint inhibitors)” value in the data set with MCF-7 mp53 cells was “blocked MCF-7 mp53 cells in mitosis”. The compound further came in with a 50% inhibitory concentration (IC50) at 24 h in [1] of 52.7 ± 2.62 µM. For the same compound, the IC50 in data set [2] (Homo sapiens, COLO 320, 72 h) was determined as 14.7 ± 0.82 µM; in data set [3], 28.71 ± 0.11 µM; in data set [4], 15.6 ± 0.83 µM; in [5], 35.1 ± 4.03 µM; in data set [8] it was 26.6 ± 0.48 µM. Also, the Type of interaction entry is “Strong antagonism” in data set [6] (starting concentration 50 µM, ratio 11.6:1); “Antagonism” in data set [6] (starting concentration 50 µM, ratio 23.2:1); “Slight antagonism” in data set [6] (starting concentration 50 µM, ratio 46.4:1); “Antagonism” in [6] (starting concentration 50 µM, ratio 92.8:1); “Moderate antagonism” in [6] (starting concentration 50 µM, ratio 185:1); “Strong antagonism” in [6] (starting concentration 50 µM, ratio compound:doxorubicin 5.8:1).

On to “carbonyl cyanide m-chlorophenylhydrazine [CCCP]”, for which the “RFI (relative fluorescence index)” value in the data set with Escherichia coli AG100 worked out at 1.34.

On to `COc1cc2c(cc1OC)CN(CCc1ccc(NC(=O)c3cc(OC)c(OC)cc3NC(=O)c3cnc4ccccc4c3)cc1)CC2` [tariquidar], for which the “FAR value (fluorescence activity ratio)” value in data set [10] stood at 6.6.

The values are drawn from PMC9377253, “Antiproliferative and cytotoxic effects of sesquiterpene lactones isolated from Ambrosia artemisiifolia on human adenocarcinoma and normal cell lines” (Pharmaceutical Biology, 2022).
